The values below come from ChEMBL document CHEMBL5625159, “Challenges for the development of mutant isocitrate dehydrogenases 1 inhibitors to treat glioma” (Eur J Med Chem, 2023).

Some results are limits rather than exact numbers.

In data set [1] the target is T1, Isocitrate dehydrogenase [NADP] cytoplasmic (Homo sapiens, UniProt O75874). In words: Inhibition of wild type IDH1 (unknown origin).
The target in data set [2] is T2, Isocitrate dehydrogenase [NADP] cytoplasmic (Homo sapiens, UniProt O75874, R132H). In words: Binding affinity to human recombinant IDH1 R132H mutant expressed in Escherichia coli BL21 (DE3) cells assessed as inhibition constant.
In data set [3] the target is T2, Isocitrate dehydrogenase [NADP] cytoplasmic. The experiment in a line: Inhibition of IDH1 R132H mutant (unknown origin) expressed in HEK293T cells assessed as inhibition of 2-HG generation measured after 48 hrs by LC-MS/MS analysis. Type of data set: cell-based.
In data set [4] the target is T3, Isocitrate dehydrogenase [NADP] cytoplasmic (Homo sapiens, UniProt O75874, R132C). In words: Inhibition of IDH1 R132C mutant (unknown origin) expressed in HEK293T cells assessed as inhibition of 2-HG generation measured after 48 hrs by LC-MS/MS analysis. Type of data set: cell-based.
Data set [5] addresses T1, Isocitrate dehydrogenase [NADP] cytoplasmic. The experiment in a line: Inhibition of IDH1 (unknown origin) expressed in Escherichia coli BL21 (DE3) cells using 2OG as substrate preincubated with compound for 2 hrs followed by substrate addition and measured after 1 hrs by spectrophotometric analysis.
For data set [6] the target is unchanged. The experiment in a line: Inhibition of human recombinant wildtype IDH1.
Data set [7] addresses T2, Isocitrate dehydrogenase [NADP] cytoplasmic. The experiment in a line: Inhibition of human IDH1 R132H mutant.
The target of data set [8] is T3, Isocitrate dehydrogenase [NADP] cytoplasmic. In words: Inhibition of IDH1 R132C mutant (unknown origin) expressed in Escherichia coli BL21 (DE3) cells.
For data set [9], the target named is Isocitrate dehydrogenase [NADP], mitochondrial (Homo sapiens, UniProt P48735, R140Q). The experiment in a line: Inhibition of IDH2 R140Q mutant (unknown origin) in the presence of NADPH by fluorescence based analysis.
Data set [10] has as its target T4, Isocitrate dehydrogenase [NADP], mitochondrial (Homo sapiens, UniProt P48735).
T4 sequence (P48735 whole entry): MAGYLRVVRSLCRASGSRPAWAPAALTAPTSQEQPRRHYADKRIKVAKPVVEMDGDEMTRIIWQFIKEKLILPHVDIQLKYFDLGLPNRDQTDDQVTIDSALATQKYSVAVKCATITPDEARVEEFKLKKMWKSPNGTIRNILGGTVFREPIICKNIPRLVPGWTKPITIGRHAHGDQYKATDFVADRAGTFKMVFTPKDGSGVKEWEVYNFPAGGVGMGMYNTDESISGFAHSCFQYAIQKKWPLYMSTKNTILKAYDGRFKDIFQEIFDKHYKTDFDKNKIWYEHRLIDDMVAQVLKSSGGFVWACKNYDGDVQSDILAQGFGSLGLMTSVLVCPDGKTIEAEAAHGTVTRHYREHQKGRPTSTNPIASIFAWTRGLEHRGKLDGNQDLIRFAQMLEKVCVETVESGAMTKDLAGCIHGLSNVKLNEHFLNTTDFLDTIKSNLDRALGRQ
The experiment in a line: Inhibition of wildtype IDH2 (unknown origin).

Data set [11] in a line: Brain to plasma ratio in mouse at 50 mg/kg, iv. The format is ADME, organism-based. The following applies: brain and plasma, read-out: BPR.
Data set [12] can be described thus: Selectivity index, ratio of IC50 for inhibition of wildtype IDH2 (unknown origin) to IC50 for inhibition of IDH2 R140Q mutant (unknown origin).
Data set [13] concerns TF-1. In words: Anticancer activity against human TF-1 cells assessed as cell growth inhibition. The format is functional, cell-based.
Data set [14] deals with T3, Isocitrate dehydrogenase [NADP] cytoplasmic. In words: Inhibition of human […] IDH1 R132C mutant expressed in Escherichia coli BL21 (DE3) cells incubated for 60 mins by fluorescence based analysis.
Data set [15] addresses T2, Isocitrate dehydrogenase [NADP] cytoplasmic. In words: Inhibition of human […] IDH1 R132H mutant expressed in Escherichia coli BL21 (DE3) cells incubated for 60 mins by fluorescence based analysis.
The target is the same in data set [16]. In words: Inhibition of N-terminal 6xHis-tagged IDH1 R132H mutant (unknown origin) expressed in Escherichia coli BL21 cells.
The target is the same in data set [17]. In words: Inhibition of C-terminal Hexahistidine-tagged human recombinant IDH1 R132H mutant expressed in Escherichia coli BL21 (DE3) cells assessed as NADPH consumption in presence of alpha KG incubated for 1 hr by MST assay.
In data set [18] the target is T3, Isocitrate dehydrogenase [NADP] cytoplasmic. The experiment in a line: Inhibition of C-terminal Hexahistidine-tagged human recombinant IDH1 R132C mutant expressed in Escherichia coli BL21 (DE3) cells assessed as NADPH consumption in presence of alpha KG incubated for 1 hr by MST assay.
Data set [19] relates to HT-1080. In words: Antiproliferative activity against human HT-1080 cells harboring IDH1 […] mutant measured after 72 hrs by MTT assay. Type of data set: functional, cell-based. The following applies: HT-1080, 72 h.
In data set [20] the test system is U-87 MG. In words: Antiproliferative activity against human U-87 MG cells assessed as reduction in cell growth by CCK-8 assay. Type of data set: functional, cell-based, U-87MG ATCC. For orientation: Tetrazolium dyes change colour on reduction, which living cells bring about.
The test system of data set [21] is HT-1080. In words: Antiproliferative activity against human HT-1080 cells assessed as cell growth inhibition incubated for 48 hrs by sulforhodamine B assay. Type of data set: functional, cell-based. To be noted: HT-1080, 48 h. On the technique in general: The SRB assay estimates cell density from bound dye.
The test system of data set [22] is U-87 MG. The experiment in a line: Antiproliferative activity against human U-87 MG cells harboring IDH1 R132H mutant measured after 72 hrs by MTT assay. Type of data set: functional, cell-based, U-87MG ATCC.
In data set [23] the target is T1, Isocitrate dehydrogenase [NADP] cytoplasmic. In words: Inhibition of N-terminal His-tagged wild type IDH1 (unknown origin).
The target in data set [24] is T2, Isocitrate dehydrogenase [NADP] cytoplasmic. In words: Inhibition of wildtype human recombinant IDH1 R132H mutant heterodimer in presence of alpha-ketoglutarate and NADPH by fluorescence based biochemical assay.
Data set [25] concerns the target T3, Isocitrate dehydrogenase [NADP] cytoplasmic. The experiment in a line: Inhibition of human N-terminal 6His-tagged IDH1 R132C mutant expressed in Escherichia coli Rosetta2 (DE3) in presence of alpha-ketoglutarate and NADPH by fluorescence based biochemical assay.
Data set [26] concerns the target T2, Isocitrate dehydrogenase [NADP] cytoplasmic. In words: Inhibition of human recombinant IDH1 R132H mutant expressed in Escherichia coli BL21 (DE3) cells in presence of alpha-ketoglutarate and NADPH by fluorescence based biochemical assay.

T2 sequence (O75874 2-414 R132H limits assumed): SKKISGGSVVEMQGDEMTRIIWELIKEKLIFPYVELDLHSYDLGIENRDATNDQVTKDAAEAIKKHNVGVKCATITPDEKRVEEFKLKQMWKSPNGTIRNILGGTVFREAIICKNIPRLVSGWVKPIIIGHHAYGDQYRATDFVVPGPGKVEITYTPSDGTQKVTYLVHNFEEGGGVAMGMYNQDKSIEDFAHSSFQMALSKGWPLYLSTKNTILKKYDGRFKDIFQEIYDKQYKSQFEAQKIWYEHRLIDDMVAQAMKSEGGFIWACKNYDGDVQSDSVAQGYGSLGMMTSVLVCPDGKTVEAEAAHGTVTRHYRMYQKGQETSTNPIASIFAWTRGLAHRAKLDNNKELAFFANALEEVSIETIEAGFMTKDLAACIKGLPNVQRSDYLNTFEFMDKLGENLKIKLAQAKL
T3 sequence (O75874 2-414 R132C limits assumed): as the sequence (O75874 2-414 R132H limits assumed) above, with H131C counted along it
T1 sequence (O75874 whole entry): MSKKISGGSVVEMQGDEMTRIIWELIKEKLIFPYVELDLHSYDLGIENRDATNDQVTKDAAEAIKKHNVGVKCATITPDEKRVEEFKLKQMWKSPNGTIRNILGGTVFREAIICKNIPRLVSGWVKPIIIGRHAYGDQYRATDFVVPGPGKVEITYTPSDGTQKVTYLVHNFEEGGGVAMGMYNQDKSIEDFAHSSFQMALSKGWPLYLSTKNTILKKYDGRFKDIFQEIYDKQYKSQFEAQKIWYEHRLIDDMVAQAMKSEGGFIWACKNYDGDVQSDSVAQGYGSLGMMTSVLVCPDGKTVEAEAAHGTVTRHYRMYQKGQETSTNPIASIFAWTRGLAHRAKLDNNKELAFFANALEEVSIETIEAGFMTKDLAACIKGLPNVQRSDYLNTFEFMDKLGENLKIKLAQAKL
Isocitrate dehydrogenase [NADP], mitochondrial (Homo sapiens, UniProt P48735, R140Q), sequence (P48735 40-452 R140Q limits assumed): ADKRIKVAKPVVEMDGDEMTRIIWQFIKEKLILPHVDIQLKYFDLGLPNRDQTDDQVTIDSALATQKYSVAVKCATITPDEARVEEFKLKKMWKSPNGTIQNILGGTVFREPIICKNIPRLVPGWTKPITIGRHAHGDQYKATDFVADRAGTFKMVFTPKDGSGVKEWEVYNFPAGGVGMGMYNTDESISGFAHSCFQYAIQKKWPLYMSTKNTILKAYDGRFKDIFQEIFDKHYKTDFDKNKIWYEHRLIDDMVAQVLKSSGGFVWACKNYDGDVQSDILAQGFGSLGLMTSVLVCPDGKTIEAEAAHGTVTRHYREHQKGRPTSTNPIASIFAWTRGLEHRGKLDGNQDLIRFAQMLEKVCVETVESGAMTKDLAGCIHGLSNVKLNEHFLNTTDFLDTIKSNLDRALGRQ

`C=CC(C)(C)c1cc(/C=C/C(=O)c2ccc(O)cc2)c(OC)cc1O` [LICOAGROCHACONE A] returned a 50% inhibitory concentration (IC50) in [1] greater than 100000 nM. Also, the Ki in data set [2] came to 76900 nM.

For `COC(=O)C1CCC2=C(C1=O)C(c1c[nH]c3ccccc13)Nc1ccccc1N2` (configuration not stated), the 50% inhibitory concentration (IC50) in data set [3] was found to be 55500 nM; in [4], 65400 nM.

Consider `Cc1cn(C(=O)c2c(-c3c(Cl)cc(Cl)cc3Cl)noc2C(C)(C)F)c2cccc(/C=C/C(=O)O)c12` [SAFUSIDENIB], for which the concentration for half-maximal inhibition (IC50) in data set [5] was greater than 10000 nM; in data set [6] it was 180 nM; in [7], 8.4 nM; in [8], 11 nM; in data set [9], greater than 10000 nM; in [10], greater than 10000 nM. In addition, the IC50 turned out to be 29 nM in data set [13], 11 nM in [14] and 8.4 nM in data set [15]. Further, the Kp in data set [11] worked out at 0.4. Besides, in [12], the Ratio IC50 is less than 0.001.

`CC(C)(O)CNc1nc(Nc2ccnc(C(F)(F)F)c2)nc(-c2cccc(C(F)(F)F)n2)n1` [ENASIDENIB]: in data set [16], the IC50 turned out to be 677 nM.

Take `CCN(CC)CCOc1ccc(/C(=C(\Cl)c2ccccc2)c2ccccc2)cc1` [ZUCLOMIPHENE]: the values for the IC50 in [17] and in data set [18] were 50200 nM and 42300 nM, respectively.

In the case of `N#Cc1ccnc(N2C(=O)CC[C@H]2C(=O)N(c2cncc(F)c2)[C@H](C(=O)NC2CC(F)(F)C2)c2ccccc2Cl)c1` [IVOSIDENIB], the half-inhibitory concentration (IC50) turned out to be 8 nM in data set [19]; 7200 nM in data set [10]; 19 nM in data set [20]; 8 nM in data set [21]; 19 nM in data set [22].

As for `COc1c(C)cc(NC(=O)c2nn(Cc3ccc(F)cc3)c3c2CN(C(=O)c2ccc[nH]2)C[C@@H]3C(N)=O)cc1C`, the IC50 came to 467 nM in [23], 16.6 nM in data set [24], 8.8 nM in data set [25] and 15.2 nM in data set [26].

By IC50 is commonly meant the point on the concentration scale where inhibition reaches its midpoint. As usually defined, the Ki is a dissociation constant, usually derived from enzyme kinetics or from competition with a known ligand.
